Assay results published in PubChem BioAssay (NCI).
Several values for one entry are separate records, joined by “and”; a condition that tells them apart may be missing. Equal entries are not always repeated.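 Results reflect a 48-hour exposure of cells in 96-well plates to compound at five concentrations. At the GI50, growth is halved. TGI: total growth inhibition.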

Key:
Assay in all cases: growth of human tumour cells (NCI), 48 h
IGROV1 ovarian = test system: IGROV1 ovarian
UACC-257 melanoma = test system: UACC-257 melanoma
SK-MEL-2 melanoma = test system: SK-MEL-2 melanoma
SW-620 colon = test system: SW-620 colon
MDA-MB-231 breast = test system: MDA-MB-231 breast
CAKI-1 renal = test system: CAKI-1 renal
K-562 leukemia = test system: K-562 leukemia
SF-539 CNS = test system: SF-539 CNS
SK-MEL-28 melanoma = test system: SK-MEL-28 melanoma
SK-OV-3 ovarian = test system: SK-OV-3 ovarian

Structure (SMILES)	GI50 (IGROV1 ovarian)	TGI (IGROV1 ovarian)	GI50 (UACC-257 melanoma)	TGI (UACC-257 melanoma)	GI50 (SK-MEL-2 melanoma)	TGI (SK-MEL-2 melanoma)	GI50 (SW-620 colon)	TGI (SW-620 colon)	GI50 (MDA-MB-231 breast)	TGI (MDA-MB-231 breast)	GI50 (CAKI-1 renal)	TGI (CAKI-1 renal)	GI50 (K-562 leukemia)	TGI (K-562 leukemia)	GI50 (SF-539 CNS)	TGI (SF-539 CNS)	GI50 (SK-MEL-28 melanoma)	TGI (SK-MEL-28 melanoma)	GI50 (SK-OV-3 ovarian)	TGI (SK-OV-3 ovarian)
Cn1cccc1-c1cc(-c2ccc(Br)cc2)[nH]c(=O)c1C#N	77.2 µM	> 100 µM	> 100 µM	> 100 µM	> 100 µM	> 100 µM	> 100 µM	> 100 µM	82.5 µM	> 100 µM	> 100 µM	> 100 µM	> 100 µM	> 100 µM	89.3 µM	> 100 µM	> 100 µM	> 100 µM	> 100 µM	> 100 µM
CN(C)c1ccc(C(=NO)c2ccc(N(C)C)cc2)cc1	2.4 µM	> 100 µM	5.12 µM	> 100 µM	3.57 µM	> 100 µM	0.729 µM	> 100 µM	4.85 µM	> 100 µM	1.95 µM	7.86 µM	0.418 µM	> 100 µM	3.38 µM	> 100 µM	5.3 µM	> 100 µM	3.57 µM	> 100 µM
CC1=C(CCC(C)NCc2ccc(OCCCN3CCCCC3)cc2)C(C)(C)CCC1 (stereo not given)	1.68 µM	3.89 µM	2.2 µM	4.03 µM	1.49 µM	3.08 µM	1.6 µM	3.32 µM	1.02 µM	2.73 µM	1.82 µM	3.92 µM	0.227 µM	0.509 µM	1.64 µM	3.22 µM	1.38 µM	2.83 µM	2.06 µM	3.76 µM
CC1=C(C(=O)N(C)c2ccc(Cl)c(C(=O)OC(C)C)c2)SCCO1	–	> 100 µM	–	> 100 µM	–	> 100 µM	–	> 100 µM	–	> 100 µM	–	> 100 µM	–	> 100 µM	–	> 100 µM	–	> 100 µM	–	> 100 µM
OCCn1cnc2c(SCc3ccccc3)ncnc21	–	> 100 µM	–	> 100 µM	–	> 100 µM	–	> 100 µM	–	> 100 µM	–	> 100 µM	–	> 100 µM	–	> 100 µM	–	> 100 µM	–	> 100 µM
Nc1ncnc2c1c(-c1ccc(Oc3ccccc3)cc1)nn2C[C@@H]1SSC[C@H]1O	1.34 µM	4.2 µM	1.44 µM	7.56 µM	0.826 µM	3.13 µM	17.3 µM	55 µM	1.8 µM	5.45 µM	2.18 µM	10.5 µM	0.501 µM	15.5 µM	1.02 µM	8.02 µM	0.084 µM	12 µM	0.92 µM	4.33 µM
Cc1nn(C)c(COc2ccc(N3CCN(S(=O)(=O)N(C)C)CC3)cc2)c1-c1cccc2c(CCCOc3cccc4ccccc34)c(C(=O)O)n(CCN3CCOCC3)c12	3.52 µM	11.7 µM	2.91 µM	9.52 µM	1.95 µM	4.35 µM	3.59 µM	15 µM	2.26 µM	5.9 µM	11.4 µM	23.9 µM	3.84 µM	> 100 µM	2.44 µM	6.17 µM	2.07 µM	4.87 µM	2.64 µM	10.3 µM
NC(=O)Nc1cc(-c2cccc(F)c2)sc1C(=O)N[C@H]1CCCNC1	0.0701 µM and 0.27 µM	1.16 µM and 1.74 µM	2.36 µM and 1.91 µM	> 10 µM and 9.82 µM	0.151 µM and 0.244 µM	> 3.75 µM and 3.15 µM	0.284 µM and 0.423 µM	> 5.03 µM and 3.36 µM	0.305 µM and 0.424 µM	2.82 µM and 2.33 µM	0.184 µM and 0.888 µM	> 3.98 µM and 4.2 µM	0.0949 µM and 0.254 µM	> 10 µM and 10.5 µM	0.0192 µM and 0.0616 µM	0.17 µM and 0.331 µM	2.95 µM and 3.53 µM	> 10 µM and 16.9 µM	0.132 µM and 0.329 µM	1.69 µM and 3.17 µM
CC(=O)[O][Sn]([CH2]c1ccccc1)([CH2]c1ccccc1)[CH2]c1ccccc1	> 10 µM	> 10 µM	> 10 µM	> 10 µM	> 8.34 µM	> 10 µM	> 8.82 µM	> 10 µM	> 9.02 µM	> 10 µM	> 10 µM	> 10 µM	3.4 µM	> 4.64 µM	> 5.42 µM	> 6.76 µM	> 5.6 µM	> 6.79 µM	> 10 µM	> 10 µM
O=C1C(c2cnc3ccccc3n2)=C(O)c2ccccc21	–	> 100 µM	–	> 95.9 µM	–	> 100 µM	–	> 56.2 µM	–	> 100 µM	–	> 100 µM	–	> 100 µM	–	> 100 µM	–	> 100 µM	–	> 46.4 µM
Cc1ccc(C(=O)NC2CCC2)cc1-c1ccc(C(=O)NCC2CC2)cc1	> 25 µM	> 25 µM	> 25 µM	> 25 µM	> 25 µM	> 25 µM	> 25 µM	> 25 µM	> 25 µM	> 25 µM	> 25 µM	> 25 µM	> 25 µM	> 25 µM	> 25 µM	> 25 µM	> 25 µM	> 25 µM	> 25 µM	> 25 µM
Nc1c(C(=O)c2cccc(C#CCO)c2)cnn1-c1ccc(F)cc1	> 25 µM	> 25 µM	> 25 µM	> 25 µM	> 25 µM	> 25 µM	> 25 µM	> 25 µM	> 25 µM	> 25 µM	> 25 µM	> 25 µM	> 25 µM	> 25 µM	> 25 µM	> 25 µM	> 25 µM	> 25 µM	> 25 µM	> 25 µM
Cc1ccc(-c2nc3nc(-c4ccccc4)nc(N4CCNCC4)c3o2)cc1	0.577 µM	1.41 µM	1.98 µM	3.8 µM	1.86 µM	3.64 µM	0.23 µM	0.54 µM	0.226 µM	0.537 µM	1.53 µM	2.95 µM	0.235 µM	0.521 µM	0.703 µM	1.85 µM	1.89 µM	3.43 µM	1.9 µM	3.42 µM
COC(=O)c1cc2ccccc2c2c3c(ccc12)OCO3	90.7 µM	> 1000 µM	199 µM	> 1000 µM	49.9 µM	334 µM	900 µM	> 1000 µM	59.7 µM	> 1000 µM	278 µM	> 1000 µM	658 µM	> 1000 µM	44.4 µM	394 µM	71.3 µM	328 µM	45.8 µM	357 µM
C#CCNCCN1C(=O)c2ccc3c4c(ccc(c24)C1=O)C(=O)N(CCNCC#C)C3=O	2.07 µM	10.4 µM	3.08 µM	9.65 µM	6.57 µM	14.1 µM	1.92 µM	11.8 µM	5.24 µM	13.6 µM	5.05 µM	15.6 µM	5.25 µM	50 µM	4.76 µM	11.2 µM	10.4 µM	27.6 µM	6.3 µM	22.6 µM
C=C1CC[C@@H]2[C@](C)(COC(C)=O)[C@H](OC(C)=O)CC[C@@]2(C)[C@@H]1CC(Nc1ccc(S(=O)(=O)Nc2ccc(Cl)nn2)cc1)C1=CCOC1=O (stereo not given in full)	2.08 µM	5 µM	1.67 µM	3.89 µM	1.77 µM	3.99 µM	1.07 µM	2.8 µM	1.9 µM	3.96 µM	2.28 µM	10 µM	0.526 µM	5.19 µM	1.23 µM	2.63 µM	1.68 µM	3.46 µM	4.05 µM	12.3 µM
COc1ccc(C2=C(c3ccc(OC)c(OC)c3)C(=O)N3CCCC3C2)cc1 (stereo not given)	13.3 µM	> 100 µM	62.3 µM	> 100 µM	> 71.1 µM	> 100 µM	32.5 µM	> 100 µM	22 µM	> 100 µM	39.4 µM	> 100 µM	7.32 µM	> 100 µM	12 µM	> 100 µM	73.3 µM	> 100 µM	30.5 µM	> 100 µM
CCSc1nc(SCC)c2c(-c3ccc(OC)c(OC)c3)c(C#N)c(SCC)nc2n1	33.5 µM	> 100 µM	39.4 µM	> 100 µM	63.8 µM	> 100 µM	61.1 µM	> 100 µM	13 µM	42 µM	5.39 µM	25.3 µM	85.1 µM	> 100 µM	1.95 µM	17.2 µM	41.8 µM	> 100 µM	> 100 µM	> 100 µM
O1[As]2O[As]3O[As]1O[As](O2)O3	0.457 µM	2.7 µM	1.5 µM	3.24 µM	1.84 µM	16.7 µM	0.577 µM	4.54 µM	0.648 µM	2.96 µM	0.567 µM	3.13 µM	0.317 µM	2.99 µM	0.347 µM	1.71 µM	1.02 µM	2.45 µM	2.8 µM	7 µM
